The target of one assay is T1, Axl (Homo sapiens, UniProt P30530).
T1 construct: endogenous in cells; host or cells: HeLa cells
T1 sequence (P30530 26-894): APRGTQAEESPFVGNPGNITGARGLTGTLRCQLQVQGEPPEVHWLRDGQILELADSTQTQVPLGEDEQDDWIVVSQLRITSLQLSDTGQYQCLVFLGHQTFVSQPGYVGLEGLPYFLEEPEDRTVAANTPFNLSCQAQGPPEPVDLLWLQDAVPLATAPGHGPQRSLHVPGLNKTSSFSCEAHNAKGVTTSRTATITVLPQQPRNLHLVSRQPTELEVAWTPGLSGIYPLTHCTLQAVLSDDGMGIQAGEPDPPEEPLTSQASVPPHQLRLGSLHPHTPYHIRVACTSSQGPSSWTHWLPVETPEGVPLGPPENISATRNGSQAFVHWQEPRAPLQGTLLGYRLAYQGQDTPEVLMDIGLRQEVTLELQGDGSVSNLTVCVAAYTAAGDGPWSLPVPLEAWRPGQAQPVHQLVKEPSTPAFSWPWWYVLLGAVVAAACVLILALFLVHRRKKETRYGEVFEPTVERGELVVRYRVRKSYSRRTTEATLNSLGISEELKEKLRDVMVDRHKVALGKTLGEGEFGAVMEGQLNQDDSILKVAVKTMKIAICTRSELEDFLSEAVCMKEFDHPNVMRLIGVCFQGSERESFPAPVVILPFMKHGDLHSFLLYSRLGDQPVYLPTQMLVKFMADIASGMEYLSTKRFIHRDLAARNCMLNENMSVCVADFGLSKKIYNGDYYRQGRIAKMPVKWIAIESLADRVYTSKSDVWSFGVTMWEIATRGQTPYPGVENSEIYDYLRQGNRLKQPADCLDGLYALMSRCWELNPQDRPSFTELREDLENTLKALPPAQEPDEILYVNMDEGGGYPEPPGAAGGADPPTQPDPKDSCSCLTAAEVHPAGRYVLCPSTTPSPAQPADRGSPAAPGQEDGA
The assay is described as follows: Phospho-Akt in-cell Western assay (inhibition of Axl activity). In kind it is cell-based. To be noted: Table 3; Hela cells, Axl antibody cross-linking stimulation, phospho-Akt chemiluminescence. The procedure, abridged: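 HeLa cells on poly-L-lysine, starved 24 h in 0.5% FCS DMEM with Axl/Fc 500 ng/mL, pre-treated with compound 1 h at 37° C. Axl stimulated 5 min by anti-Axl/anti-mouse antibody cross-linking. Fixed cells probed with anti-phospho-Akt and HRP secondary, chemiluminescence read.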
Usually IC50 stands for the concentration that inhibits the measured activity by half. A low value points to greater potency in that assay. Turning to `Nc1nc(Nc2ccc(OCCN3CC[C@H](F)C3)cc2)nn1C(=O)c1ccc2cc[nH]c2c1` [compound 388, 5-amino-1-(1H-indol-6-yl)carbonyl-3-[4-[2-((S)-3-fluoropyrrolidin-1-yl)ethoxy]phenylamino]-1H-1,2,4-triazole], the IC50 was under 1000 nM. The same measure, in the same setting: next, `Nc1nc(Nc2ccc(OCCN3CCCC3)cc2)nn1C(=O)c1ccc2[nH]ccc2c1` [compound #3, 5-Amino-1-(1H-indol-5-yl)carbonyl-3-[4-[2-(pyrrolidin-1-yl)ethoxy]phenylamino]-1H-1,2,4-triazole]: under 1000 nM. Same read-out and setting: the same measure for `Nc1nc(Nc2ccc(OCCN3CCCC3)cc2)nn1C(=O)c1ccc2cc[nH]c2c1` [compound #5, 5-Amino-1-(1H-indol-6-yl)carbonyl-3-[4-[2-(pyrrolidin-1-yl)ethoxy]phenylamino]-1H-1,2,4-triazole]: under 1000 nM; for `Nc1nc(Nc2ccc(OCCN3CCCC3)cc2)nn1C(=O)c1cc2ccccc2[nH]1` [compound #6, 5-Amino-1-(1H-indol-2-yl)carbonyl-3-[4-[2-(pyrrolidin-1-yl)ethoxy]phenylamino]-1H-1,2,4-triazole]: under 1000 nM.

Still in this assay, the particulars now being: Table 4; Hela cells, Axl antibody cross-linking stimulation, phospho-Akt chemiluminescence.
The compound `Nc1nc(Nc2ccc(OCCN3CC[C@H](F)C3)cc2)n(C(=O)c2ccc3cc[nH]c3c2)n1` [compound 389, 3-amino-1-(1H-indol-6-yl)carbonyl-5-[4-[2-((S)-3-fluoropyrrolidin-1-yl)ethoxy]phenylamino]-1H-1,2,4-triazole] came in with an IC50 of under 1000 nM.

Staying with this assay, now noted: Table 5; Hela cells, Axl antibody cross-linking stimulation, phospho-Akt chemiluminescence.
As for `CS(=O)(=O)N1CCC(Nc2nc(N)n(C(=O)c3c(F)cccc3F)n2)CC1` [compound 392, 5-amino-1-(2,6-difluorophenyl)carbonyl-3-(1-methylsulfonylpiperidin-4-yl)amino-1H-1,2,4-triazole], the IC50 was over 20000 nM. Compound `CC(C)(C)Oc1ccc(C(=O)n2nc(NC3CCN(S(C)(=O)=O)CC3)nc2N)cc1` [compound 393, 5-amino-1-(4-(tert-butoxy)phenyl)carbonyl-3-(1-methylsulfonylpiperidin-4-yl)amino-1H-1,2,4-triazole] had an IC50 of over 20000 nM. `CN(C)c1ccc(C(=O)n2nc(NC3CCN(S(C)(=O)=O)CC3)nc2N)cc1` [compound 395, 5-amino-1-(4-(dimethylamino)phenyl)carbonyl-3-(1-methylsulfonylpiperidin-4-yl)amino-1H-1,2,4-triazole] came in with an IC50 of over 20000 nM. Compound `CS(=O)(=O)N1CCC(Nc2nc(N)n(C(=O)c3ccc(N4CCOCC4)cc3)n2)CC1` [compound 399, 5-amino-1-(4-(morpholin-4-yl)phenyl)carbonyl-3-(1-methylsulfonylpiperidin-4-yl)amino-1H-1,2,4-triazole] returned an IC50 of over 20000 nM.

The same assay, now with this note: Table 6; Hela cells, Axl antibody cross-linking stimulation, phospho-Akt chemiluminescence.
With `CS(=O)(=O)N1CCC(Nc2nc(N)nn2C(=O)c2c(F)cccc2F)CC1` [compound 391, 3-amino-1-(2,6-difluorophenyl)carbonyl-5-(1-methylsulfonylpiperidin-4-yl)amino-1H-1,2,4-triazole], the IC50 was over 20000 nM. The same measure, in the same setting: next, `CN(C)c1ccc(C(=O)n2nc(N)nc2NC2CCN(S(C)(=O)=O)CC2)cc1` [compound 396, 3-amino-1-(4-(dimethylamino)phenyl)carbonyl-5-(1-methylsulfonylpiperidin-4-yl)amino-1H-1,2,4-triazole]: over 20000 nM.

The assay is the same for the next values; noted with them: Table 9; Hela cells, Axl antibody cross-linking stimulation, phospho-Akt chemiluminescence.
Compound `CS(=O)(=O)N1CCC(Nc2nc(N)n(C(=O)c3ccc4c(c3)OCCO4)n2)CC1` [compound 397, 5-amino-1-(1,4-benzodioxan-6-yl)carbonyl-3-(1-methylsulfonylpiperidin-4-yl)amino-1H-1,2,4-triazole] gave an IC50 of over 20000 nM.

Staying with this assay, now noted: inhibition of Axl activity, phospho-Akt in-cell Western assay; Table 1.
Turning to `COc1c(F)cc(C(=O)n2nc(Nc3ccc(OCCN4CCCC4)cc3)nc2N)cc1F` [compound 390, 5-amino-1-(3,5-difluoro-4-methoxyphenyl)carbonyl-3-[4-[2-(pyrrolidin-1-yl)ethoxy]phenylamino]-1H-1,2,4-triazole], the half-maximal inhibitory concentration (IC50) is under 1000 nM. On to `Nc1nc(Nc2ccc(OCCN3CCCC3)cc2)nn1C(=O)c1ccc(N2CCS(=O)(=O)CC2)cc1` [compound 400, 5-amino-1-(4-(1,1-dioxo-thiomorpholin-4-yl)phenyl)carbonyl-3-[4-[2-(pyrrolidin-1-yl)ethoxy]phenylamino]-1H-1,2,4-triazole], for which the half-inhibitory concentration (IC50) was under 1000 nM. On the same count and under the same terms, next, `Nc1nc(Nc2ccc(OCCN3CCCC3)cc2)nn1C(=O)c1ccc(N2CCCCC2)cc1` [compound 401, 5-amino-1-(4-(piperidin-1-yl)phenyl)carbonyl-3-[4-[2-(pyrrolidin-1-yl)ethoxy]phenylamino]-1H-1,2,4-triazole]: under 1000 nM; `Nc1nc(Nc2ccc(OCCN3CCCC3)c(Cl)c2)nn1C(=O)c1cc(Cl)cc(Cl)c1` [compound 402, 5-amino-3-[3-chloro-4-[2-(pyrrolidin-1-yl)ethoxy]phenylamino]-1-(3,5-dichlorophenyl)carbonyl-1H-1,2,4-triazole]: over 20000 nM.

For `CC(C)(C)Oc1ccc(C(=O)n2nc(Nc3ccc(OCCN4CCCC4)cc3)nc2N)cc1` [compound #1, 5-Amino-3-[4-[2-(pyrrolidin-1-yl)ethoxy]phenylamino]-1-(4-(tert-butoxy)phenyl)carbonyl-1H-1,2,4-triazole], the IC50 was under 1000 nM. In turn, `CN(C)c1ccc(C(=O)n2nc(Nc3ccc(OCCN4CCCCC4)cc3)nc2N)cc1` [compound #2, 5-Amino-1-(4-(dimethylamino)phenyl)carbonyl-3-[4-[2-(piperidin-1-yl)ethoxy]phenylamino]-1H-1,2,4-triazole] yielded an IC50 of under 1000 nM. In the case of `CN(C)c1ccc(C(=O)n2nc(Nc3ccc(OCCN4CCCC4)cc3)nc2N)cc1` [compound #4, 5-Amino-1-(4-(dimethylamino)phenyl)carbonyl-3-[4-[2-(pyrrolidin-1-yl)ethoxy]phenylamino]-1H-1,2,4-triazole], the IC50 was under 1000 nM. The same measure, in the same setting: next, `Nc1nc(Nc2ccc(OCCN3CCCC3)cc2)nn1C(=O)c1cccc(OC(F)(F)F)c1` [compound #7, 5-Amino-3-[4-[2-(pyrrolidin-1-yl)ethoxy]phenylamino]-1-(3-(trifluoromethoxy)phenyl)carbonyl-1H-1,2,4-triazole]: under 1000 nM; `CN(C)c1ccc(C(=O)n2nc(Nc3ccc(OCCCN4CCCC4)cc3)nc2N)cc1` [compound #8, 5-Amino-1-(4-(dimethylamino)phenyl)carbonyl-3-[4-[3-(pyrrolidin-1-yl)propoxy]phenylamino]-1H-1,2,4-triazole]: under 1000 nM; `Cc1cccc(C(=O)n2nc(Nc3ccc(OCCN4CCCC4)cc3)nc2N)c1` [compound #9, 5-Amino-1-(3-methylphenyl)carbonyl-3-[4-[2-(pyrrolidin-1-yl)ethoxy]phenylamino]-1H-1,2,4-triazole]: under 1000 nM. As for `CC(C)Oc1ccc(C(=O)n2nc(Nc3ccc(OCCCN4CCCC4)cc3)nc2N)cc1` [compound #10, 5-Amino-1-(4-(iso-propoxy)phenyl)carbonyl-3-[4-[3-(pyrrolidin-1-yl)propoxy]phenylamino]-1H-1,2,4-triazole], the IC50 is under 1000 nM. Compound `CN(C)c1cccc(C(=O)n2nc(Nc3ccc(OCCN4CCCCC4)cc3)nc2N)c1` [compound #11, 5-Amino-1-(3-(dimethylamino)phenyl)carbonyl-3-[4-[2-(piperidin-1-yl)ethoxy]phenylamino]-1H-1,2,4-triazole] returned an IC50 of under 1000 nM. Still for that read-out and setting: the same measure for `Cc1ccc(C(=O)n2nc(Nc3ccc(OCCN4CCCC4)cc3)nc2N)cc1` [compound #12, 5-Amino-1-(4-methylphenyl)carbonyl-3-[4-[2-(pyrrolidin-1-yl)ethoxy]phenylamino]-1H-1,2,4-triazole]: under 1000 nM; for `Nc1nc(Nc2ccc(OCCN3CCCCC3)cc2)nn1C(=O)c1ccc2c(c1)OCO2` [compound #13, 5-Amino-1-(1,3-benzodioxol-5-yl)carbonyl-3-[4-[2-(piperidin-1-yl)ethoxy]phenylamino]-1H-1,2,4-triazole]: under 1000 nM.

For the compound `COc1cccc(C(=O)n2nc(Nc3ccc(OCCN4CCCC4)cc3)nc2N)c1` [compound #14, 5-Amino-1-(3-methoxyphenyl)carbonyl-3-[4-[2-(pyrrolidin-1-yl)ethoxy]phenylamino]-1H-1,2,4-triazole], the IC50 is under 1000 nM. For the compound `CC(C)(C)Oc1ccc(C(=O)n2nc(Nc3ccc(OCCCN4CCCC4)cc3)nc2N)cc1` [compound #15, 5-Amino-3-[4-[3-(pyrrolidin-1-yl)propoxy]phenylamino]-1-(4-(tert-butoxy)phenyl)carbonyl-1H-1,2,4-triazole], the half-inhibitory concentration (IC50) is under 1000 nM.

These data come from US8389557B2, “Triazole derivatives useful as Axl inhibitors” (Rigel Pharmaceuticals, Inc., priority 2005, dated 2013).
